Experimental data from patent US5516797A, “Immunosuppressive compounds” (Vertex Pharmaceuticals, Incorporated, priority 1994, dated 1996).

Columns and labels:
[1] = test system: human peripheral blood lymphocytes; experiment: Mitogenesis assay OKT3: inhibition of proliferation of human PBLs; assay type: cell-based; details: Lymphocyte, OKT3 (10^-4 dilution final), 48 h incubation
Description: (§1) PMA and OKT3mitogens used to stimulate proliferation of human peripheral
(§2) blood lymphocytes (PBC). Compounds are evaluated on their ability to
(§3) Fresh peripheral blood lymphocytes (PBLs) from LeukoPak cells or whole blood from random normal blood donors (tested HIV-negative and hepatitis negative) are isolated and separated by density centrifugation over Histopaque 1077 (Sigma Chemical Co., St. Louis, Mo.). The murine CTLL cytotoxic T cell line and the human Jurkat T cell line are from ATCC (CTLL-2 ATCC TIB214, JURKAT CLONE E6-1 ATCC TIBl52). The human allogeneic B cell lines used for activation of the fresh PBLs are EBV-transformed lymphocytes from normal healthy adult donors with two completely different HLAhaplotypes. All cell lines were routinely tested for the presence of Mycolasma contamination using the GibcoMycotect test kit and are Mycolasma-free. Culture medium consksts of RPMI 1640 (Gibco, Grand Island, N.Y.) containing penicillin (50 U/ml) and streptomycin (50 μg/ml), L-glutamine 2 mM, 2 mercaptoethanol (5×10^-5), 10% heat-inactivated FCS and 10 mM HEPES.
(§4) All chemical stocks were dissolved in DMSO.
(§5) Mitogenesis Assays ("PMA" and "OKT3")
(§6) After 48 h incubation (37° C., 5% CO2), cells were pulsed with 1 μCi of ^3 H-thymidine, harvested 24 h later with a Tom Tek cell harvester, and counted in LKB β-scintillation counter.

[2] = test system: human peripheral blood lymphocytes; experiment: Mitogenesis assay PMA: inhibition of proliferation of human PBLs; assay type: cell-based; details: Lymphocyte, PMA (10 ng/ml) plus ionomycin (250 ng/ml), 48 h incubation
Description: as §1, §2, §3, §4, §5, §6

[3] = target: FK-506 binding protein (FKBP) (Homo sapiens, UniProt P62942); experiment: Inhibition of PPIase (rotamase) enzyme activity of FKBP (apparent Ki); assay type: biochemical; details: substrate N-succinylAla-Ala-Pro-Phe-p-nitroanilide, chymotrypsin-coupled
Text: The inhibition of the PPIase (rotamase) enzyme activity of the FKBP (apparent "Ki" values) can also be measured according to the methods described by either Harding, M. W. et al., Nature 341:758-760 (1989) or Siekierka, J. J. et al., Nature 341:755-757 (1989). The cis-trans isomerization of the proline-alanine peptide bond in a model substrate, N-succinylAla-Ala-Pro-Phe-p-nitroanilide, is monitored spectrophotometrically in a coupled assay with chymotrypsin, which releases 4-nitroanilide from the trans form of the substrate. Fischer, G. et al., Nature 337:476-478 (1989). The inhibitory effect of the addition of different concentrations of inhibitor on the extent of the reaction is determined, and analysis of the change in first order rate constant as a function of inhibitor concentration yields an estimate of the apparent Ki value.

[4] = test system: PBLs stimulated with JVM human viral transformed B lymphoblastoid cells; experiment: MLR bioassay JVM: inhibition of proliferation in mixed lymphocyte reaction; assay type: cell-based; details: Lymphoblastoid cell, pulsed on day 6, harvested 24 h later
Description: (§7) LB and JVMhuman viraltransformed B lymphoblastoid cell lines stimulated t
(§8) proliferate in a mixed lymphocyte reaction (MLR). The compounds are
(§9) evaluated on their ability to inhibit this proliferation.
as §3, §4
(§10) MLR Bioassays ("LB" and "JVM")
(§11) Antigen activated proliferation of PBLs in a primary mixed lymphocyte reaction was assessed in the presence or absence of different concentrations of tested compounds and control drugs. 5×10^4 fresh PBLs were stimulated with 5×10^3 of Mitomycin C treated-allogeneic EBV-transformed β-lymphoglastoid cells, IB and JVM, in a final volume of 200 μl per well in 96-well round-bottomed plates (Mishell, B. B. and S. M. Shiigi, Selected Methods in Cellular Immunology W. H. Freeman and Co., San Francisco, Calif. (1980); Nelson, P. A. et al., Transplantation 50:286 (1990)). Cultures were pulsed on day 6, harvested 24 h later and counted as in previous section.

[5] = test system: PBLs stimulated with LB human viral transformed B lymphoblastoid cells; experiment: MLR bioassay LB: inhibition of proliferation in mixed lymphocyte reaction; assay type: cell-based; details: Lymphoblastoid cell, pulsed on day 6, harvested 24 h later
Description: as §7, §8, §9, §3, §4, §10, §11

Chain of FK-506 binding protein (FKBP) (P62942 whole entry): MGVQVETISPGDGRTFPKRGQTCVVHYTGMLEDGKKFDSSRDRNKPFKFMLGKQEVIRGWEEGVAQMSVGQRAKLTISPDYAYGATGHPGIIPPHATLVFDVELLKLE

Ki [3] [nM]	SMILES	IC50 [1] [µM]	IC50 [2] [µM]	IC50 [4] [µM]	IC50 [5] [µM]
780	O=C(C(=O)N1CCCC[C@H]1C(=O)OCCCc1ccccc1)C1=CCCCC1 [Compound 89]	> 10	8	> 10	> 10
1000	COc1ccc(/C=C/C(=O)C(=O)N2CCCC[C@H]2C(=O)OCc2ccccc2)cc1 [Compound 45]	> 10	> 10	> 10	> 10
1500	C/C(=C\c1ccccc1)COC(=O)[C@@H]1CCCCN1C(=O)C(=O)c1ccccc1 [Compound 23]	> 10	> 10	> 10	> 10
5000	O=C(C(=O)N1CCCC[C@H]1C(=O)OCc1ccc(-c2ccccc2)cc1)c1ccccc1 [Compound 58]	–	–	–	–
500	COc1cc(C(=O)C(=O)N2CCCC[C@H]2C(=O)OCCc2cccc3ccccc23)cc(OC)c1OC [Compound 80]	4	3	10	10
900	O=C(C(=O)N1CCCC[C@H]1C(=O)Oc1cccc2ccccc12)c1ccccc1 [Compound 5]	> 10	> 10	> 10	> 10
120	O=C(CC1CCCCC1)C(=O)N1CCCC[C@H]1C(=O)OCCCCc1ccccc1 [Compound 99]	> 10	> 10	> 10	> 10
1000	CCC(C)C(=O)C(=O)N1CCCC[C@H]1C(=O)OCc1ccccc1 (stereo partly drawn) [Compound 67]	> 10	> 10	> 10	> 10
440	O=C(C(=O)N1CCCC[C@H]1C(=O)OCCCCc1ccccc1)C1CCOCC1 [Compound 101]	> 10	> 10	> 10	> 10
–	O=C(C(=O)N1CCCC[C@H]1C(=O)OCCCCC1CCCCC1)c1ccccc1 [Compound 56]	> 10	> 10	6.5	> 10
11000	O=C(OCc1ccccc1)[C@@H]1CCCCN1C(=O)/C=C/c1ccccc1 [Compound 123]	–	–	–	–
900	CC(C)CC(=O)C(=O)N1CCCC[C@H]1C(=O)OCc1ccccc1 [Compound 7]	> 10	> 10	> 10	> 10
130	COc1cc(C(=O)C(=O)N2CCCC[C@H]2C(=O)OCCCn2cnc3cncnc32)cc(OC)c1OC [Compound 107]	> 10	6.5	> 10	> 10
–	O=C(C(=O)N1CCCC[C@H]1C(=O)OCCCCc1ccccc1)c1ccccc1 [Compound 64]	6	10	> 10	> 10
14000	COc1ccc(C(=O)C(=O)N2CCCC[C@H]2C(=O)OCCCCc2ccccc2)cc1C1CCCCC1 [Compound 102]	> 10	> 10	10	10
–	O=C(C(=O)N1CCCC[C@H]1C(=O)OCCc1ccccc1)c1ccccc1 [Compound 68]	> 10	> 10	> 10	> 10
350	O=C(Cc1ccccc1)C(=O)N1CCCC[C@H]1C(=O)OCCCCc1ccccc1 [Compound 95]	> 10	> 10	> 10	> 10
560	CCOc1cccc(C(=O)C(=O)N2CCCC[C@H]2C(=O)OCc2ccccc2)c1 [Compound 60]	> 10	> 10	> 10	> 10
180	CC(C)(C)C(=O)C(=O)N1CCCC[C@H]1C(=O)OCCCCc1ccccc1 [Compound 104]	> 10	4	> 10	> 10
3000	O=C(C(=O)N1CCCC[C@H]1C(=O)OCc1ccccc1)c1ccc(F)c(F)c1 [Compound 44]	–	–	–	–
8000	C=CCOC(=O)[C@@H]1CCCCN1C(=O)C(=O)c1ccccc1 [Compound 4]	–	–	–	–

Ki [3] [nM]	SMILES	IC50 [1] [µM]	IC50 [2] [µM]	IC50 [4] [µM]	IC50 [5] [µM]
300000	O=C(C(=O)N1CCC[C@H]1C(=O)OCc1ccccc1)c1ccccn1 [Compound 43]	–	–	–	–
–	COc1cc(C(=O)C(=O)N2CCCC[C@H]2C(=O)OCCCCC2CCCCC2)cc(OC)c1OC [Compound 57]	4.5	4	8	> 10
10000	COc1ccc(OC)c(/C=C/C(=O)N2CCC[C@H]2C(=O)OCc2ccccc2)c1 [Compound 113]	–	–	–	–
500	C/C(=C\[C@H]1CC[C@H](O)CC1)COC(=O)[C@@H]1CCCCN1C(=O)C(=O)c1ccccc1 [Compound 26]	6.5	> 10	> 10	> 10
800	COc1cc(C(=O)C(=O)N2CCCC[C@H]2C(=O)OCc2ccc(Oc3ccccc3)cc2)cc(OC)c1OC [Compound 73]	> 10	8	6	4.5
110	COc1cc(C(=O)C(=O)N2CCCC[C@H]2C(=O)OCCCn2cnc3ccccc32)cc(OC)c1OC [Compound 106]	> 10	7	> 10	> 10
500	CC(C)Oc1cccc(C(=O)C(=O)N2CCCC[C@H]2C(=O)OCc2ccccc2)c1 [Compound 66]	> 10	> 10	> 10	> 10
60000	C[C@H](NC(=O)/C=C/c1ccc2c(c1)OCO2)C(=O)OCc1ccccc1 [Compound 132, (S)-3-(3,4-Methylenedioxyphenyl)-prop-2-enoylalanine benzyl ester]	–	–	–	–
2000	COc1cc(C(=O)C(=O)N2CCCC[C@H]2C(=O)OCc2ccc(-c3ccccc3)cc2)cc(OC)c1OC [Compound 59]	–	–	–	–
2500	O=C(OCc1ccccc1)[C@@H]1CCCCN1C(=O)/C=C/c1ccoc1 [Compound 119]	–	–	–	–
2500	O=C(OCc1ccccc1)[C@@H]1CCCCN1C(=O)/C=C/c1ccco1 [Compound 118]	–	–	–	–
–	COc1cc(C(=O)C(=O)N2CCCC[C@H]2C(=O)OCc2cccc(Oc3ccccc3)c2)cc(OC)c1OC [Compound 61]	8	4	> 10	> 10
25000	O=C(OCc1ccccc1)[C@@H]1CCCCN1C(=O)/C=C/c1cccnc1 [Compound 121]	–	–	–	–
–	COc1cc(C(=O)C(=O)N2CCCC[C@H]2C(=O)OCCCc2c[nH]c3ccccc23)cc(OC)c1OC [Compound 84]	6	4.5	> 10	6
10000	COC(=O)C(=O)N1CCCC[C@H]1C(=O)OC/C(C)=C/c1ccc(OC)c(OC)c1 [Compound 37]	–	–	–	–
6000	C/C(=C\c1ccc(O)cc1)COC(=O)[C@@H]1CCCCN1C(=O)C(=O)c1ccccc1 [Compound 24]	–	–	–	–
5000	O=C(C(=O)N1CCCC[C@H]1C(=O)OCc1ccccc1)c1ccccc1C(F)(F)F [Compound 55]	–	–	–	–
300000	C=CC(=O)N1CCCC[C@H]1C(=O)OCc1ccccc1 [Compound 122]	–	–	–	–
25000	COc1cc(OC)c(OC)cc1/C=C/C(=O)N1CCC[C@H]1C(=O)OCc1ccccc1 [Compound 114]	–	–	–	–
50000	C[C@@H](C(=O)OCc1ccccc1)N(C)C(=O)/C=C/c1ccc2c(c1)OCO2 [Compound 131]	–	–	–	–
60000	COC(=O)C(=O)N1CCCC[C@H]1C(=O)OC/C(C)=C/c1ccc(O)cc1 [Compound 38]	–	–	–	–
